# According to ChEMBL document CHEMBL1156829 (Proc Natl Acad Sci U S A, 2008):
# pEC50: −log10 of the molar value.
# Assays:
# Plasmodium falciparum [1] = assay: NOVARTIS: Inhibition of Plasmodium falciparum 3D7 (drug-susceptible) proliferation in erythrocyte-based infection assay; type: functional, organism-based; settings: Plasmodium falciparum, 3D7
# Plasmodium falciparum [2] = assay: NOVARTIS: Inhibition of Plasmodium falciparum W2 (drug-resistant) proliferation in erythrocyte-based infection assay; type: functional, organism-based; settings: for pEC50: Plasmodium falciparum, W2, read-out: EC50
# [3] = NOVARTIS: Cytotoxicity against human hepatocellular carcinoma cell line (Huh7); type: toxicity, cell-based, Huh-7; settings: Huh7 cells (hepatocellular carcinoma cell line)
Structure (SMILES),pEC50 (Plasmodium falciparum [1]),pEC50 (Plasmodium falciparum [2]),CC50 [3] [nM],EC50 (Plasmodium falciparum [2])
N#Cc1ccc(NC(=O)c2cc(Cl)ccc2O)cc1,5.96,6.00,> 10000,–
Cc1ccc(NC(C)C(=O)Nc2ccc(C#N)cc2)cc1S(=O)(=O)N1CCCCC1 (stereo unspecified),6.39,6.35,59500,–
COC(=O)c1sc2nc(CN3CCC(C)CC3)ccc2c1NC(=O)c1ccc(C)s1,5.01,–,> 100000,No fit
CCC(c1nc2cc(Cl)ccc2c(=O)n1CC)N(CC)C(=O)c1ccc2ccccc2c1 (stereo unspecified),< 5.91,5.91,> 10000,–
O=C1N(Cc2cc3ccccc3s2)CC2CN(Cc3ccccc3)CCN12 (stereo unspecified),6.36,6.43,> 10000,–
N=c1c2c(n(Cc3ccccc3)c3c1CCC3)CCCC2,6.37,6.13,> 10000,–
C=CCn1c(COc2ccccc2C)nnc1SCC(=O)O,< 4.90,5.98,> 100000,–
CCOc1ccccc1NC(=O)Nc1ccc2nc(N3CCN(C)CC3)cc(C)c2c1,5.93,6.34,21400,–
CC(CC(=O)Oc1ccccc1-c1nc2ccccn2c1NC(C)(C)CC(C)(C)C)CC(C)(C)C (stereo unspecified),6.62,7.47,796,–
CCOC(=O)c1[nH]c2ccc(OC)cc2c1N=NN(C)C,6.35,6.02,68600,–
CN(C)c1ccc(-c2nc(-c3ccc(-c4[nH]c(-c5ccc(N(C)C)cc5)nc4-c4ccccc4)cc3)c(-c3ccccc3)[nH]2)cc1,5.11,5.54,68400,–
COc1ccc(Cl)cc1-n1c(-c2cccnc2)n[nH]c1=S,5.73,< 5.90,> 10000,–
CCn1cc(C(=O)N2CCC(C(=O)c3nccs3)CC2)c(C)n1,< 5.90,< 6.38,> 10000,–
CC1(C)C2CCC(C2)C1(C)NC(=S)NN=Cc1ccccn1 (stereo unspecified),7.46,7.42,54700,–
N#Cc1cc(Oc2ccc(-c3cnc4ccccc4n3)cc2)nc2ccccc12,< 4.90,5.21,> 100000,–
O=C(Nc1ccc(NC(=O)Nc2ccc(C3=NCCN3)cc2)cc1)Nc1ccc(C2=NCCN2)cc1,6.52,6.56,> 10000,–
COC(=O)c1c(-c2c(Cl)cccc2Cl)noc1C=CNc1ccc(Cl)cc1,< 5.75,4.98,> 100000,–
NC(=O)C1CCN(S(=O)(=O)c2cc(Br)c(Br)s2)CC1,< 6.12,< 5.90,> 10000,–
Oc1ccc(-c2ccccc2)cc1CN1CCCCCC1,6.62,7.27,67400,–
CCCCCCCCN[C@@H](C)[C@@H](O)c1ccc(SC(C)C)cc1,< 5.90,6.38,> 6250,–
CC(C)N1CC=C(c2c[nH]c3ccccc23)CC1,6.69,6.20,> 100000,–
CC(C)C(=O)N(C)CCCNc1ccnc2cc(Cl)ccc12,6.88,6.93,> 10000,–
Cc1ccc(S(=O)(=O)N(C)CCCNc2ccnc3cc(Cl)ccc23)cc1,6.42,6.50,4010,–

Structure (SMILES),pEC50 (Plasmodium falciparum [1]),pEC50 (Plasmodium falciparum [2]),CC50 [3] [nM],EC50 (Plasmodium falciparum [2])
CCC(C)(C)c1ccc(OCC(O)CNCc2ccccc2)c(C(C)(C)CC)c1 (stereo unspecified),6.44,7.00,9200,–
CC=C[C@H]1O[C@@](O)([C@@H](C)C(O)C(C)[C@H]2OC(=O)C(OC)=CC(C)=C[C@@H](C)[C@@H](O)[C@@H](C)[C@@H](O)C(C)CC(C)=CC=C[C@@H]2OC)C[C@@H](O[C@H]2C[C@@H](O)[C@H](OC(N)=O)[C@@H](C)O2)[C@@H]1C (stereo partly specified),< 5.78,6.62,> 10000,–
Cc1onc(-c2ccccc2)c1C(=O)N1CCC(CNc2c(-c3ccoc3)nc3ccccn23)CC1,5.75,6.65,96600,–
CC(=O)Nc1ccc2c(c1)C(=O)N(C(C(=O)NC1CCCCC1)c1ccc([N+](=O)[O-])cc1)[C@@H](c1ccccc1)C(=O)N2 (stereo partly specified),< 5.90,< 6.06,7680,–
COc1ccccc1-n1c(S)nnc1-c1ccccc1O,6.56,6.53,> 10000,–
O=C(NC(=CC=Cc1ccccc1)C(=O)N1CCOCC1)c1ccccc1,5.41,6.91,> 100000,–
O=C(NC1CCN(CC(O)CN(Cc2ccccc2)S(=O)(=O)c2ccccc2)C1)c1ccccc1 (stereo unspecified),7.09,7.24,> 7270,–
CC(=O)OCN1C(=O)N(COC(C)=O)C2C1N(COC(C)=O)C(=O)N2COC(C)=O (stereo unspecified),< 4.94,5.37,> 100000,–
Cc1oc(-c2cccc(C(F)(F)F)c2)cc1C(=O)O,< 6.05,6.57,> 10000,–
COC1=CC(=O)c2c(ccc3cc(O)ccc23)C1=O,6.12,6.67,> 10000,–
C=C[C@H]1CN2CC[C@H]1C[C@H]2[C@H](OC(=O)c1cccc([N+](=O)[O-])c1)c1ccnc2ccccc12,6.40,> 7.84,> 10000,–
CCOc1cc([N+](=O)[O-])cc(C=Nc2cccc(NC(=O)c3ccco3)c2)c1O,< 5.90,< 5.91,> 10000,–
CCC(C)OC(=O)C1=C(C)NC2=C(C(=O)CC(c3ccc(Cl)cc3)C2)C1c1cccc(O)c1 (stereo unspecified),5.99,6.83,39600,–
Cc1cc(C)c(NC(=S)N(CCCN2CCCCC2)Cc2cccs2)c(C)c1,< 5.81,6.75,> 10000,–
COc1cncc(-c2cncc(-c3ccc(C)cc3)n2)c1,7.02,7.07,> 100000,–
CC1CCCCN1CCCNc1ncc(C(=O)NCC2CCCO2)c(NCCc2ccccc2)n1 (stereo unspecified),6.04,7.57,> 10000,–
C=CCN1C(=O)/C(=C\c2ccccc2)C(C(=O)OC)=C1C,6.23,6.58,> 10000,–
c1ccc(-c2nc(-c3ccc4cccnc4c3)n(-n3c(-c4ccc5cccnc5c4)nc(-c4ccccc4)c3-c3ccccc3)c2-c2ccccc2)cc1,5.44,5.82,29100,–
O=C1CN(C(=O)c2cc([N+](=O)[O-])c(N3CCCCC3)c([N+](=O)[O-])c2N2CCCCC2)c2ccccc2N1,5.66,5.74,50400,–
O=C(Cc1ccc(F)cc1Cl)N1CCN(c2cccc3c2C(=O)N(Cc2ccccn2)C3=O)CC1,< 5.90,< 5.93,> 10000,–
CCCCOc1c2ccccc2nc2ccccc12,< 5.90,< 6.23,> 10000,–
Nc1ccc(-c2nc3cc(Oc4ccc5[nH]c(-c6ccc(N)cc6)nc5c4)ccc3[nH]2)cc1,6.17,6.45,21400,–
COc1ccc(CNC(=O)C2CNCC2c2ccc(C(F)(F)F)cc2)cc1 (stereo unspecified),6.78,7.07,24100,–

Structure (SMILES),pEC50 (Plasmodium falciparum [1]),pEC50 (Plasmodium falciparum [2]),CC50 [3] [nM],EC50 (Plasmodium falciparum [2])
Cc1cccc(C(=O)NCc2nnc(S)n2-c2cccc(C(F)(F)F)c2)c1,5.66,6.12,> 100000,–
COc1ccccc1N1CCN(c2ccc(NC(=O)c3ccc(F)cc3)cc2C(=O)N2CCCC2)CC1,< 5.90,6.83,> 10000,–
CCCCn1c(=N)n(CC(O)c2ccc(Br)cc2)c2ccccc21 (stereo unspecified),6.33,6.85,22500,–
CC(=NO)c1ccc(NC2=C(N3CCCCC3)C(=O)c3ccccc3C2=O)cc1,7.03,7.05,> 100000,–
CCOC(=O)c1[nH]c(CSC#N)c(C(C)=O)c1C,< 5.90,< 6.42,> 10000,–
CSc1ccc(C=CC(=O)NC(=O)c2ccccc2O)cc1,6.61,6.65,> 100000,–
CCn1nc(/C=C/c2ccccc2)nc2c(=O)n(C)c(=O)nc1-2,< 5.48,< 5.00,42000,–
COc1ccc(C2CC(=O)C3=C(C2)NC(C)=C(C(=O)OC(C)C)C3c2cccc(C)c2)cc1OC (stereo unspecified),7.09,7.72,54800,–
COc1cccc(NC(=O)c2cccc3c(=O)c4c([nH]c23)CCCC4)c1,6.02,6.77,> 100000,–
COC(=O)C(C)NC(=O)c1ccc(F)cc1 (stereo unspecified),< 5.90,6.17,> 10000,–
COc1ccc(CCN2CC(CNC(=O)Cc3cccnc3)C(c3ccc(N(C)C)cc3)C2)cc1OC (stereo unspecified),6.00,< 6.51,> 10000,–
CC(Nc1cc(C)ccn1)=C(C#N)C#N,6.26,6.10,> 100000,–
Cc1cc(-c2ccc(O)c(CN3CCCCCC3)c2)c2ccccc2n1,5.95,6.46,55900,–
CCCCCCN(C(=O)Nc1ccccc1OC)C(C)c1nc2ccccc2c(=O)n1-c1ccccc1OCC (stereo unspecified),6.07,6.12,> 10000,–
CCOC(=O)c1sc(NC(=O)C(C)Sc2nnc(CNC(=O)c3cccc(F)c3)n2-c2cccc(C)c2)c(C(=O)OCC)c1C (stereo unspecified),< 4.90,5.96,> 100000,–
CCCn1nc(NS(C)(=O)=O)c2cc3cccc(C)c3nc21,< 5.04,5.69,> 100000,–
Cc1nonc1C(=O)NN=Cc1ccc([N+](=O)[O-])o1,5.76,6.38,49300,–
CC1CC(C)(C)NC(=S)N1CCC(=O)NCCc1ccccc1 (stereo unspecified),6.00,< 5.90,> 10000,–
CCOC(=O)C1=C(C)NC2=C(C(=O)CC(c3ccc(OC)c(OC)c3)C2)C1c1c(F)cccc1Cl (stereo unspecified),7.12,7.64,> 100000,–
CCN(CC)CCCC(C)NCc1ccc(OC)c(OCc2ccccc2)c1 (stereo unspecified),< 6.10,6.58,> 10000,–
O=C1C2C3c4ccccc4C(c4ccccc43)C2C(=O)N1CCO (stereo unspecified),< 4.90,5.43,> 100000,–
